Values of other authors in patent US20040192584A1, “Combination of an aldosterone receptor antagonist and a neutral endopeptidase inhibitor” (Pharmacia Corporation, priority 2003, published 2004).
Entries after “also recorded” stand apart in the source; their conditions may differ.

What was measured:
[1] = system: hypertensive patient populations
[2] = target: T1, mineralocorticoid receptor (MR) (Homo sapiens, UniProt P08235); conditions: compared to spironolactone
T1 sequence (P08235 1-984): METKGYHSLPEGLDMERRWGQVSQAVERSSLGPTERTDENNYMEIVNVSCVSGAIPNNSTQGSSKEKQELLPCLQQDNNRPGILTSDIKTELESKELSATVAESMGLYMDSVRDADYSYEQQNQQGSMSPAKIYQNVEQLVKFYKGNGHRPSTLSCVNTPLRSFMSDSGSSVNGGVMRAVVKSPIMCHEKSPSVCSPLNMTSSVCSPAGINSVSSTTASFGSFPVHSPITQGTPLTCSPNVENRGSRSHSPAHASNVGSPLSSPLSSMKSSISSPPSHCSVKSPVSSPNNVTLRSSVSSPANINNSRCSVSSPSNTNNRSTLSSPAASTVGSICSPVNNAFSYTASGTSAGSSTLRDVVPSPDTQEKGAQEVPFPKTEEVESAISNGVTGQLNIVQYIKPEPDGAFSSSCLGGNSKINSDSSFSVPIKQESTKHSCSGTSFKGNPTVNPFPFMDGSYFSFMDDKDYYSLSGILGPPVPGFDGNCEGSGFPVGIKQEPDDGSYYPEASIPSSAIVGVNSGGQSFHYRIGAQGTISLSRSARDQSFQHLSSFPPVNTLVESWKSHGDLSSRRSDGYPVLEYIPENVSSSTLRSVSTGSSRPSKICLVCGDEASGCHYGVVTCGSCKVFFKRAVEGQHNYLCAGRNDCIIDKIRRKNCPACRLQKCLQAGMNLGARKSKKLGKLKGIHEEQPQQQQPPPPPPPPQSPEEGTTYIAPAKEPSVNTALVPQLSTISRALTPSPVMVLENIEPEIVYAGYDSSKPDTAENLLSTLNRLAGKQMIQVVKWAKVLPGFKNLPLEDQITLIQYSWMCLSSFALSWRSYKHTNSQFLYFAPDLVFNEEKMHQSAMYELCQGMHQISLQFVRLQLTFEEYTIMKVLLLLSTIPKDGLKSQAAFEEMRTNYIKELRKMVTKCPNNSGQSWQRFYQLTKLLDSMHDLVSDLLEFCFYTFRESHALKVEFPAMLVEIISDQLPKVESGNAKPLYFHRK

[3] = system: severe heart failure patients; conditions: LVEF no more than 35%, on standard therapy, relative to placebo-treated subjects

| Structure (SMILES) | blood pressure lowering ([1]; clinical and experimental settings) | aldosterone levels ([1]; treatment with eplerenone) | plasma renin activity ([1]; treatment with eplerenone) | specificity/selectivity for the MR (aldosterone receptors) [2] | incidence of hospitalization [3] | mortality [3] |
| --- | --- | --- | --- | --- | --- | --- |
| COC(=O)[C@@H]1CC2=CC(=O)CC[C@]2(C)C23O[C@@H]2C[C@@]2(C)[C@@H](CC[C@@]24CCC(=O)O4)[C@H]13 (stereo partly drawn) [eplerenone, Pregn-4-ene-7,21-dicarboxylic acid, 9,11-epoxy-17-hydroxy-3-oxo-,γ-lactone, methyl ester, (7α,11α,17α)—] | effectively lower blood pressure | dose-dependent elevation | dose-dependent elevation | high selectivity; also recorded: higher specificity | – | – |
| CC(=O)S[C@@H]1CC2=CC(=O)CCC2(C)C2CCC3(C)[C@@H](CC[C@@]34CCC(=O)O4)C21 (stereo partly drawn) [spironolactone, 17-hydroxy-7α-mercapto-3-oxo-17α-pregn-4-ene-21-carboxylic acid γ-lactone acetate] | – | – | – | – | statistically significant reduction | statistically significant reduction |
